Laboratory results as given in US20130045940A1, “COMPOSITION COMPRISING AS ACTIVE INGREDIENT L-CARNITINE IN COMBINATION WITH A SOLAR FILTER, FOR THE PREVENTION AND/OR TREATMENT OF PATHOLOGIES OF THE EYE DUE TO ULTRAVIOLET RADIATION” (SIGMA-TAU INDUSTRIE FARMACEUTICHE RIUNITE S.P.A., priority 2010, published 2013).

Columns and labels:
corneal epithelium = assay: protective effect on the corneal epithelium against UV A/B radiation in rabbits (morphology, TUNEL); assay type: in vivo, rabbit; conditions: for damage to the DNA (TUNEL) / corneal tissue morphology (hematoxylin-eosin): treated left eye after UV exposure; for corneal tissue morphology (hematoxylin-eosin): compared with untreated animals; for EYE LEFT Score (arbitrary scale): treated left eye, instilled every 2 hours for eight hours, then 2091 seconds of UV 290/360 nm, Negative Control = 10, UV-exposed untreated right eye = 1
Protocol: In all the groups treated (groups 1-4) the right eye acted as a positive control. The following compositions were instilled respectively into the left eye every 2 hours for eight hours:
Then the animals were exposed for 2091 seconds to UV radiation using a xenon-mercury lamp, 5000 W, 290/360 nm, (Photochem. Photobiol. 1989; 49:175-180) after which the animals were killed and the eyeballs removed and placed in a fixative (4% paraformaldehyde). The cornea was then removed, included in paraffin and then evaluated for its morphological aspects and the cellular degeneration. The morphology was examined by means of hematoxylin-eosin staining whereas the cellular parameters were examined with vital exclusion stains and the TUNEL technique (analysis of DNA fragmentation, by means of terminal transferase, as a consequence of cellular stress) (Arch. Ophthalmol. 1987; 115:1031-1035).

[1] = test system: functional retinal status; assay: functional retinal status (FERG, mfERG) in subjects with age-related maculopathy, 6 months of eye drops; assay type: in vivo, human; conditions: for amplitudes found with the FERG / mfERG: after 6 months treatment vs before; for SCORE AFTER 6 MONTHS OF TREATMENT (ARBITRARY SCALE): three times a day for 6 months, 0 = no variation respect to time zero, −10 = worsening of the symptoms
Protocol: In order to evaluate the protective effect of the eye drops being examined on the internal structures of the eye in subjects suffering from age-related maculopathy, the following experimental procedure was carried out. 24 Subjects between 49 and 74 years of age, irrespective of gender, received for 6 months the eye drops of Example 1 (complete composition) three times a day. Subjects were subdivided into 4 equal groups and treated as reported in the following: The functional retinal status of the patients was evaluated using the focal electroretinogram (FERG) and the multifocal electroretinogram (mfERG) methods, before and after 6 months treatment. These two methods are useful for evaluating the electrical activity of the 30° retinal centres (Invest. Ophthalmol. Vis. Sci., 1986; 27: 1123-1130; Eye, 2005; 19:431-441).

[2] = solubility of 3-HKG in water; assay type: physicochemical; conditions: amount of 0.1 mg/mL (as in WO2008/077712)

solubility in water [2]	Compound	damage to the DNA (TUNEL) (corneal epithelium)	corneal tissue morphology (hematoxylin-eosin) (corneal epithelium)	EYE LEFT Score (arbitrary scale) (corneal epithelium)	amplitudes found with the FERG [1]	mfERG [1]	SCORE AFTER 6 MONTHS OF TREATMENT (ARBITRARY SCALE) [1]
not (completely) soluble in water	Nc1c(O[C@@H]2O[C@H](CO)[C@@H](O)[C@H](O)[C@H]2O)cccc1C(=O)CC(N)C(=O)O (mixture of isomers) [Group 3, 3-Hydroxykynurenine O-β-DL-glucoside]	no damage to the DNA was seen	tissue appeared damaged although this was not very apparent	4 arbitrary scale	substantial stability	significant worsening	−4 arbitrary scale
	C[N+](C)(C)C[C@H](O)CC(=O)[O-] [Group 2, L-carnitine]	no damage to the DNA was seen	tissue appeared damaged	3 arbitrary scale	reduction	significant worsening	−6 arbitrary scale
